# According to US8334267B2, “Mangiferin calcium salts, the method for its preparation and its use” (Hainan Deze Drug Research Co., Ltd., priority 2007, dated 2012):
# Legend:
# [1] = Water solubility test in distilled water; details: for dissolves in 30 minutes: prepared per example 8
# Description: 5 mg mangiferin powder which is weighed up accurately is put into 50 ml distilled water, the solution is shaked acutely 30 second every 5 minutes.
# 100 mg mangiferin calcium powder which is obtained by the method for preparation of example 8 and weighed up accurately is put into 50 ml distilled water, the solution is shaked acutely 30 second every 5 minutes.
# [2] = Stability of mangiferin calcium by preparation route; assay type: physicochemical; details: mangiferin calcium made by reacting mangiferin with calcium hydroxide; changes much in 2 hours
# Description: 3, The water solution of mangiferin calcium which mangiferin reacted with calcium hydroxide is unstable, it changes much in 2 hours. The reaction of mangiferin with other alkaline calcium like calcium bicarbonate or calcium acetate is difficult because they are alkalescent. The productivity is very low.
# 5, Mangiferin monosodium (or monopotassium) is come into being first; then mangiferin monosodium (or monopotassium) reacts with water-solubility calcium salt, and mangiferin calcium is come into being. The mangiferin calcium which is obtained by this method is stability, and the productivity is high.
# [3] = Pharmacokinetics of mangiferin and mangiferin calcium after oral administration; assay type: in vivo, rats; details: rats, oral 100 mg/kg
# Description: 1, The Confect of Drug Solution
# Mangiferin is suspended in Carboxymethyl cellulose sodium solution which concentration is one percent; the mangiferin concentration is 10 mg/mL, which is sample A.
# All rats were fasted for 16 hours, free drinking water. The rats are oral administrated separately sample A and sample B, which dose is 100 mg/kg. The rats were taken whole blood in 5 minutes before oral administrated and 15 min, 30 min, 45 min, 60 min, 90 min, 120 min, 180 min, 240 min, 300 min, 360 min, 480 min after oral administrated. Serum is separated from these blood samples.
# Serum Samples are extracted accurately 0.2 ml into centrifuge tubes separately; then 40 μL cold trichloroacetic acid solution which concentration is ten percent is added into centrifuge tubes separately. The samples are whorled 3 minutes; then centrifuged 12000 r/min for 10 minutes, 120 μl the up layer solution are extracted from centrifuge tubes and put into sample bottles separately. All the samples are detected by HPLC.
# Apparatus: Angilent 1100 HPLC (American Agilent Co.), include G1312A dual pump G1313A Auto-Sampler.
# Chromatographic column: discover ODS column (250 mm×6 mm, 5 μm);
# The mobile phase: Acetonitrile—0.1% H3PO4 water (13:87 v/v)
# Velocity of flow: 1.0 ml/min
# Detection Wavelength: 254 nm.
# Column temperature: 30° C.
# STZ rats = experiment: Efficacy in STZ model (plasma glucose, insulin, lipids, glucose clamp); assay type: in vivo, wistar rats; details: for Glucose infusion rate: glucose clamp; for FFA / GLU / INS / TG: high fat chow
# Description: Rosiglitazone Hydrochloride tablets were purchased from Zhejiang wanma pharmaceutical Co., Ltd. Mangiferin and mangiferin calcium salts were suspended with 3% sodium carboxymethyl cellulose.
# Normal female wistar rats (SPF, 3 months age, 180-200 g) were purchased from Hainan provincial peoples hospital experimental Animal Center. The animals were kept in a room temperature (25˜28° C.) with free access of food and water. A light-dark cycle (6 a.m and 6 p.m) was strictly enforced. High fat chow is composed of 55% basic chow, 2% protein, 16% fat, 27% white sugar.
# Model: After the rats were fasted for 12 hours, the rats are injected 30-35 mg/kg streptozotocin (STZ) solution once by tail vein. STZ solution is prepared to 2% concentration with […], pH 4.4 citrate-sodium citrate buffer before use. The model rats were weighed, taked out tail vein blood, tested blood glucose when the Model is done after 14 days after fasting for 12 hours, then injected 20% glucose solution ([…]) by intraperitoneal, determined blood glucose in 0.5 h, 1 h, 2 h. The rats whose glucose tolerance is abnormal were brought into experiments. Normal wistar rats were fed normal chow, model rats were fed high fat chow.
# Experimental group:normal wistar rats group (n=10); after Diabetes model is succeed, the rats were randomly divided into 7 groups: Diabetes model group (n=10); mangiferin groups (20, 40, 80 mg/kg, each 10 rats); mangiferin calcium groups (10, 20, 40 mg/kg, each 10 rats); Rosiglitazone Hydrochloride group [3 mg/kg, n=10]. Test samples or vehicle control was given orally for 8 weeks. Diabetes model group and normal group were given vehicle.
# Determination of insulin sensitivity (Glucose infusion rate): Using glucose clamp technique, in accordance with Konglingdong'method ? KONG Ling-dong, ZHU Liang-zheng, SONG Ju-min, etc al. Intervention Effects of Tiaozhi Jiangtang Tablet on Insulin Resistance in Rats with Diabetes Mellitus Type 2.
# Determination of plasma glucose and lipid: Rats were taken whole blood after killed, then serum was separated, determined plasma glucose (GLU), insulin (INS), triglycerides (TG) and free fatty acids (FFA).
# GLU and TG levels were determined using GF-D800 semi-auto chemist which was purchased from Shandong Gaomi Caihong Analytical Instrument Co., Ltd. Free fatty acids were determined using copper colorimetric determination. The kits for Determination of free fatty acids were purchased from Nanjing Jiancheng Bioengineering Institute. Insulin: radioimmunoassay (RIA), γ counter counts. insulin RIA Kit was purchased from Shandong Weifang City three-dimensional (3V) Biological company.
# Statistics: The results have been calculated as mean±SD ( x±SD) and compareisons of the data have been done by t-test.
# GK rats = experiment: Efficacy in GK model (plasma glucose, insulin, lipids); assay type: in vivo, Goto-Kakizaki rats (GK)
# Description: Rosiglitazone Hydrochloride tablets were purchased from Zhejiang wanma pharmaceutical Co., Ltd. Mangiferin and mangiferin calcium were suspended with 3% sodium carboxymethyl cellulose before use.
# Goto-Kakizaki rats (GK) (16 weeks age, ♀ ♂) were purchased from Shanghai SLAC laboratory animal Co., Ltd. The animals were kept in IVC cages with temperature (22° C.). There are two rats in each cage.
# Experimental group: GK rats group (n=10); mangiferin groups (20, 40, 80 mg/kg, each 10 rats); mangiferin calcium groups (10, 20, 40 mg/kg, each 10 rats); Rosiglitazone Hydrochloride group [3 mg/kg, n=10]. Test samples or vehicle control was given orally for 30 days. GK rats group were given vehicle.
# The blood specimens were taken by abdominal aorta at the end of the test. Plasma glucose (GLU), insulin (INS), triglycerides (TG), total cholesterol (TC), high density lipoprotein (HDL), low density lipoprotein (LDL) were determined
# GLU, TC, TG, HDL and LDL levels were determined using GF-D800 semi-auto chemist which was purchased from Shandong Gaomi Caihong Analytical Instrument Co., Ltd. Insulin: radioimmunoassay (RIA), γ counter counts. insulin RIA Kit was purchased from Shandong Weifang City three-dimensional (3V) Biological company.
# Statistics: The results have been calculated as mean±SD ( x±SD) and comparisons of the data have been done by t-test.
structure (smiles),measurement,setting,value
"O=c1c2cc(O)c(O)cc2oc2cc([O-])c([C@@H]3O[C@H](CO)[C@@H](O)[C@H](O)[C@H]3O)c(O)c12.O=c1c2cc([O-])c(O)cc2oc2cc(O)c([C@@H]3O[C@H](CO)[C@@H](O)[C@H](O)[C@H]3O)c(O)c12.[Ca+2] [Mangiferin calcium, mangiferin calcium]",dissolves in 30 minutes,[1]; 50 mg powder in 50 ml distilled water,can dissolve
same,dissolves in 30 minutes,[1]; 100 mg powder in 50 ml distilled water,can not dissolve completely
same,water solubility,"[1]; distilled water, shaken 30 second every 5 minutes, 30 minutes",more than 1 mg/ml
same,stability of water solution,[2],unstable
same,bioavailability,[3]; compared with mangiferin,better than mangiferin
same,Cmax,[3]; serum,48300 ± 600 ng/mL
same,T1/2β,[3]; serum,1.02 ± 0.128 h
same,"improvement of GLU, TG, FFA, INS, Glucose infusion rate in diabetic rats",STZ rats; 10 mg/kg orally for 8 weeks,significantly improves
same,Glucose infusion rate,STZ rats; 10 mg/kg orally for 8 weeks,17.56 ± 3.45 mg/kg · min
same,Glucose infusion rate,STZ rats; 20 mg/kg orally for 8 weeks,24.37 ± 3.75 mg/kg · min
same,Glucose infusion rate,STZ rats; 40 mg/kg orally for 8 weeks,26.36 ± 3.58 mg/kg · min
same,FFA,STZ rats; 10 mg/kg orally for 8 weeks,1.54 ± 0.23 µmol/L
same,GLU,STZ rats; 10 mg/kg orally for 8 weeks,8.01 ± 0.32 mmol/L
same,INS,STZ rats; 10 mg/kg orally for 8 weeks,27.63 ± 3.46 μ IU/ml
same,TG,STZ rats; 10 mg/kg orally for 8 weeks,2.49 ± 0.18 mmol/L
same,FFA,STZ rats; 20 mg/kg orally for 8 weeks,1.28 ± 0.14 µmol/L
same,GLU,STZ rats; 20 mg/kg orally for 8 weeks,7.31 ± 0.22 mmol/L
same,INS,STZ rats; 20 mg/kg orally for 8 weeks,23.57 ± 3.68 μ IU/ml
same,TG,STZ rats; 20 mg/kg orally for 8 weeks,1.93 ± 0.36 mmol/L
same,FFA,STZ rats; 40 mg/kg orally for 8 weeks,1.13 ± 0.18 µmol/L
same,GLU,STZ rats; 40 mg/kg orally for 8 weeks,6.91 ± 2.02 mmol/L
same,INS,STZ rats; 40 mg/kg orally for 8 weeks,20.53 ± 4.42 μ IU/ml
same,TG,STZ rats; 40 mg/kg orally for 8 weeks,1.49 ± 0.28 mmol/L
same,GLU,GK rats; 10 mg/kg orally for 30 days,24.06 ± 1.57 mmol/L
same,HDL,GK rats; 10 mg/kg orally for 30 days,0.81 ± 0.07 mmol/L
same,INS,GK rats; 10 mg/kg orally for 30 days,27.48 ± 8.70 μ IU/ml
same,LDL,GK rats; 10 mg/kg orally for 30 days,1.26 ± 0.18 mmol/L
same,TC,GK rats; 10 mg/kg orally for 30 days,2.43 ± 0.21 mmol/L
same,TG,GK rats; 10 mg/kg orally for 30 days,1.79 ± 0.22 mmol/L
same,"improvement of TC, HDL and LDL in diabetic GK rats",GK rats; 10 mg/kg orally for 30 days,significantly improves
same,GLU,GK rats; 20 mg/kg orally for 30 days,23.34 ± 1.67 mmol/L
same,HDL,GK rats; 20 mg/kg orally for 30 days,0.80 ± 0.10 mmol/L
same,INS,GK rats; 20 mg/kg orally for 30 days,20.45 ± 6.36 μ IU/ml
same,LDL,GK rats; 20 mg/kg orally for 30 days,1.31 ± 0.10 mmol/L
same,TC,GK rats; 20 mg/kg orally for 30 days,2.47 ± 0.08 mmol/L
same,TG,GK rats; 20 mg/kg orally for 30 days,1.60 ± 0.41 mmol/L
same,"improvement of GLU, TC, TG, HDL and LDL and INS in diabetic GK rats",GK rats; 20 mg/kg orally for 30 days,significantly improves
same,GLU,GK rats; 40 mg/kg orally for 30 days,23.17 ± 1.58 mmol/L
same,HDL,GK rats; 40 mg/kg orally for 30 days,0.80 ± 0.09 mmol/L
same,INS,GK rats; 40 mg/kg orally for 30 days,16.79 ± 5.37 μ IU/ml
same,LDL,GK rats; 40 mg/kg orally for 30 days,1.37 ± 0.11 mmol/L
same,TC,GK rats; 40 mg/kg orally for 30 days,2.49 ± 0.07 mmol/L
same,TG,GK rats; 40 mg/kg orally for 30 days,1.57 ± 0.39 mmol/L
